Test results published in US20220089575A1, “FARNESOID X RECEPTOR AGONISTS AND USES THEREOF” (Metacrine, Inc., priority 2017, published 2022).

Biological target: T1, hFXR (Homo sapiens, UniProt Q96RI1)
T1 construct: expressed in transfected cells; host or cells: CV-1 cells
T1 sequence (Q96RI1 1-486): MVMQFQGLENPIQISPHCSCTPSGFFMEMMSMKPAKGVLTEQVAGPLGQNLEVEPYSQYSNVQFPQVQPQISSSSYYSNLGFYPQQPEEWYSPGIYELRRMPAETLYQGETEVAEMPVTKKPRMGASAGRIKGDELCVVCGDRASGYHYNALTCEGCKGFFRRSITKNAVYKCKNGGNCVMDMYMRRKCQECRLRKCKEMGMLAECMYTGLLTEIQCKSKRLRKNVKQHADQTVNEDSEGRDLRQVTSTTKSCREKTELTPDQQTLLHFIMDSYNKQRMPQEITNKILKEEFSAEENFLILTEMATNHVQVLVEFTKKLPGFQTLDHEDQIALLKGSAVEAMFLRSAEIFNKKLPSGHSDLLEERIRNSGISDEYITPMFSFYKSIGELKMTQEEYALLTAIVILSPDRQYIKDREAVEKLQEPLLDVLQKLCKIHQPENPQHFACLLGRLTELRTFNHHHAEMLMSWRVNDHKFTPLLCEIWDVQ
T1 sequence (P19793 1-462 partner): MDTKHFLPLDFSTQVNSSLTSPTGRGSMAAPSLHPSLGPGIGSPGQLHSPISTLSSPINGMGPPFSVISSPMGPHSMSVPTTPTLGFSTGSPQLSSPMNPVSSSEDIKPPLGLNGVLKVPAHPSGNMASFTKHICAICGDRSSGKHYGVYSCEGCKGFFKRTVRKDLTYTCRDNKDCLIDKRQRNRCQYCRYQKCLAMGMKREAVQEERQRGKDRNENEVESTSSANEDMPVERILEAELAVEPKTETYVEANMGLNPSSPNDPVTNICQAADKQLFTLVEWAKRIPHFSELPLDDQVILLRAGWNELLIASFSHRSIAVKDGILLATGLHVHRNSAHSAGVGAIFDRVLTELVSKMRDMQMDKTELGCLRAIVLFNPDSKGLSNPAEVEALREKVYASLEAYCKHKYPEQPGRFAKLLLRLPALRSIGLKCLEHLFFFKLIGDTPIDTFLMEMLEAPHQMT
Test: In Vitro FXR Assay (TK): TK-ECRE-luc reporter in transfected CV-1 cells
Assay type: cell-based
Conditions: 18 hrs, luminescence, maximum efficacy of <25% of the Fexarmine control classified as '+'
How it was run: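 CV-1 cells in DMEM with 10% charcoal-stripped FBS were co-transfected with hFXR, hRXR, TK-ECRE-luc reporter and pCMX-YFP plasmids. After 18 h, compounds serially diluted in DMSO were added for a further 18 h, then cells were lysed and luminescence read.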

Row | SMILES | EC50 [nM]
1 | COc1ccc([C@H]2CC[C@H](CN(c3cccc(-c4coc(C5CC5)n4)c3)C(=O)[C@H]3CC[C@H](CC(=O)O)CC3)CC2)cc1C [Compound 21.02, 2-(trans-4-((3-(2-Cyclopropyloxazol-4-yl)phenyl)((trans-4-(4-methoxy-3-methylphenyl)cyclohexyl)methyl)carbamoyl)cyclohexyl)acetic acid] | ≤ 250
2 | COc1ccc([C@H]2CC[C@H](CN(c3cccc(-c4coc(C5CC5)n4)c3)C(=O)[C@H]3CC[C@H](CC(=O)O)CC3)CC2)nc1C [Compound 21.03, 2-(trans-4-((3-(2-Cyclopropyloxazol-4-yl)phenyl)((trans-4-(5-methoxy-6-methylpyridin-2-yl)cyclohexyl)methyl)carbamoyl)cyclohexyl) acetic acid] | ≤ 250
3 | COc1ccc([C@H]2CC[C@@H](CN(c3cccc(-c4coc(C5CC5)n4)c3)C(=O)[C@H]3CC[C@H](CC(=O)O)CC3)CC2)nc1C [Compound 21.04, 2-(trans-4-((3-(2-Cyclopropyloxazol-4-yl)phenyl)((cis-4-(5-methoxy-6-methylpyridin-2-yl)cyclohexyl)methyl)carbamoyl)cyclohexyl) acetic acid] | ≥ 1000
4 | COc1ccc([C@H]2CC[C@H](CN(c3cccc(-c4coc(C5CC5)n4)c3)C(=O)[C@H]3CC[C@H](CC(=O)O)CC3)CC2)cc1C#N [Compound 21.05, 2-(trans-4-(((trans-4-(3-Cyano-4-methoxyphenyl)cyclohexyl)methyl)(3-(2-cyclopropyloxazol-4-yl)phenyl)carbamoyl)cyclohexyl)acetic acid] | ≤ 250
5 | CN(C)c1ccc([C@H]2CC[C@H](CN(c3cccc(-c4coc(C5CC5)n4)c3)C(=O)[C@H]3CC[C@H](CC(=O)O)CC3)CC2)cn1 [Compound 21.06, 2-(trans-4-((3-(2-Cyclopropyloxazol-4-yl)phenyl)((trans-4-(6-(dimethylamino)pyridin-3-yl)cyclohexyl)methyl)carbamoyl)cyclohexyl) acetic acid] | ≤ 250
6 | COc1ccc([C@H]2CC[C@H](CN(c3cc(-c4coc(C5CC5)n4)ccn3)C(=O)[C@H]3CC[C@H](CC(=O)O)CC3)CC2)nc1C [Compound 21.07, 2-(trans-4-((4-(2-Cyclopropyloxazol-4-yl)pyridin-2-yl)((trans-4-(5-methoxy-6-methylpyridin-2-yl)cyclohexyl)methyl)carbamoyl)cyclohexyl) acetic acid] | ≤ 250
7 | COc1ccc([C@H]2CC[C@H](CN(c3cccc(-c4coc(C(C)C)n4)c3)C(=O)[C@H]3CC[C@H](CC(=O)O)CC3)CC2)cc1C [Compound 21.08, 2-(trans-4-((3-(2-lsopropyloxazol-4-yl)phenyl)((trans-4-(4-methoxy-3-methylphenyl)cyclohexyl)methyl)carbamoyl)cyclohexyl)acetic acid] | ≤ 250
8 | COc1ccc([C@H]2CC[C@H](CN(c3cc(-c4coc(C(C)C)n4)ccn3)C(=O)[C@H]3CC[C@H](CC(=O)O)CC3)CC2)cc1C [Compound 21.09, 2-(trans-4-((4-(2-Isopropyloxazol-4-yl)pyridin-2-yl)((trans-4-(4-methoxy-3-methylphenyl)cyclohexyl)methyl)carbamoyl)cyclohexyl)acetic acid] | ≤ 250
9 | COc1ccc([C@H]2CC[C@H](CN(c3cccc(-c4coc(C(C)C)n4)c3)C(=O)[C@H]3CC[C@H](CC(=O)O)CC3)CC2)cc1C#N [Compound 21.10, 2-(trans-4-(((trans-4-(3-Cyano-4-methoxyphenyl)cyclohexyl)methyl)(3-(2-isopropyloxazol-4-yl)phenyl)carbamoyl)cyclohexyl)acetic acid] | ≤ 250
10 | COc1ccc([C@H]2CC[C@H](CN(c3cc(-c4coc(C(C)C)n4)ccn3)C(=O)[C@H]3CC[C@H](CC(=O)O)CC3)CC2)cc1C#N [Compound 21.11, 2-(trans-4-(((trans-4-(3-Cyano-4-methoxyphenyl)cyclohexyl)methyl)(4-(2-isopropyloxazol-4-yl)pyridin-2-yl)carbamoyl)cyclohexyl)acetic acid] | ≤ 250
11 | COc1ccc([C@H]2CC[C@H](CN(c3cc(-c4coc(C5CC5)n4)ccn3)C(=O)[C@H]3CC[C@H](CC(=O)O)CC3)CC2)cc1C#N [Compound 21.12, 2-(trans-4-(((trans-4-(3-Cyano-4-methoxyphenyl)cyclohexyl)methyl)(4-(2-cyclopropyloxazol-4-yl)pyridin-2-yl)carbamoyl)cyclohexyl)acetic acid] | ≤ 250
12 | COc1ccc([C@H]2CC[C@H](CN(c3cccc(-c4coc(C5CC5)n4)c3)C(=O)[C@H]3CC[C@H](CC(=O)O)CC3)CC2)nc1C#N [Compound 21.13, 2-(trans-4-(((trans-4-(6-Cyano-5-methoxypyridin-2-yl)cyclohexyl)methyl)(3-(2-cyclopropyloxazol-4-yl)phenyl)carbamoyl)cyclohexyl)acetic acid] | ≤ 250
13 | CCCOC(=O)[C@H]1CC[C@H](C(=O)N(C[C@H]2CC[C@H](c3ccc(OC)c(C)c3)CC2)c2cccc(-c3cnn(C4CC4)c3)c2)CC1 [Compound 22, trans-Propyl 4-((3-(1-cyclopropyl-1H-pyrazol-4-yl)phenyl)((trans-4-(4-methoxy-3-methylphenyl)cyclohexyl)methyl)carbamoyl)cyclohexanecarboxylate] | ≤ 250
14 | COc1ccc([C@H]2CC[C@H](CN(c3cccc(-c4cnn(C5CC5)c4)c3)C(=O)[C@H]3CC[C@H](C(=O)OC(C)C)CC3)CC2)cc1C [Compound 22.01, trans-Isopropyl 4-((3-(1-cyclopropyl-1H-pyrazol-4-yl)phenyl)((trans-4-(4-methoxy-3-methylphenyl)cyclohexyl)methyl)carbamoyl) cyclohexanecarboxylate] | ≤ 250
15 | CCCCOC(=O)[C@H]1CC[C@H](C(=O)N(C[C@H]2CC[C@H](c3ccc(OC)c(C)c3)CC2)c2cccc(-c3cnn(C4CC4)c3)c2)CC1 [Compound 22.02, trans-Butyl 4-((3-(1-cyclopropyl-1H-pyrazol-4-yl)phenyl)((trans-4-(4-methoxy-3-methylphenyl)cyclohexyl)methyl)carbamoyl) cyclohexanecarboxylate] | ≤ 250
16 | CCCCCOC(=O)[C@H]1CC[C@H](C(=O)N(C[C@H]2CC[C@H](c3ccc(OC)c(C)c3)CC2)c2cccc(-c3cnn(C4CC4)c3)c2)CC1 [Compound 22.03, trans-Pentyl 4-((3-(1-cyclopropyl-1H-pyrazol-4-yl)phenyl)((trans-4-(4-methoxy-3-methylphenyl)cyclohexyl)methyl)carbamoyl) cyclohexanecarboxylate] | ≥ 1000
17 | COc1ccc([C@H]2CC[C@H](CN(c3cccc(-c4cnn(C5CC5)c4)c3)C(=O)[C@H]3CC[C@H](C(=O)OCC(C)C)CC3)CC2)cc1C [Compound 22.04, trans-Isobutyl 4-((3-(1-cyclopropyl-1H-pyrazol-4-yl)phenyl)((trans-4-(4-methoxy-3-methylphenyl)cyclohexyl)methyl)carbamoyl) cyclohexanecarboxylate] | ≤ 250
18 | COc1ccc([C@H]2CC[C@H](CN(c3cccc(-c4cnn(C5CC5)c4)c3)C(=O)[C@H]3CC[C@H](C(=O)OCCC(C)C)CC3)CC2)cc1C [Compound 22.05, trans-Isopentyl 4-((3-(1-cyclopropyl-1H-pyrazol-4-yl)phenyl)((trans-4-(4-methoxy-3-methylphenyl)cyclohexyl)methyl)carbamoyl) cyclohexanecarboxylate] | 250 to 1000
19 | CCCOC(=O)[C@H]1CC[C@H](C(=O)N(C[C@H]2CC[C@H](c3ccc(OC)c(C)n3)CC2)c2cc(-c3cnn(C4CC4)c3)ccn2)CC1 [Compound 22.06, trans-Propyl 4-((4-(1-cyclopropyl-1H-pyrazol-4-yl)pyridin-2-yl)((trans-4-(5-methoxy-6-methylpyridin-2-yl)cyclohexyl)methyl)carbamoyl) cyclohexanecarboxylate] | 250 to 1000
20 | COc1ccc([C@H]2CC[C@H](CN(c3cccc(-c4cnn(C5CC5)c4)c3)C(=O)[C@H]3CC[C@H](C(=O)NCCO)CC3)CC2)cc1C [Compound 23, trans-N^1-(3-(1-Cyclopropyl-1H-pyrazol-4-yl)phenyl)-N^4-(2-hydroxyethyl)-N^1-((trans-4-(4-methoxy-3-methylphenyl)cyclohexyl)methyl)cyclohexane-1,4-dicarboxamide] | 250 to 1000
21 | CNC(=O)[C@H]1CC[C@H](C(=O)N(C[C@H]2CC[C@H](c3ccc(OC)c(C)c3)CC2)c2cccc(-c3cnc(OC)s3)c2)CC1 [Compound 24, trans-N^1-((trans-4-(4-Methoxy-3-methylphenyl)cyclohexyl)methyl)-N^1-(3-(2-methoxythiazol-5-yl)phenyl)-M-methylcyclohexane-1,4-dicarboxamide] | ≤ 250
